Peptide text beside a SMILES is read from it. * marks the point of attachment. Cbz = O=C(OCc1ccccc1)*
How the values were obtained:
c-Myc [1] = test: c-Myc accumulation after proteasome inhibition, immunoblot; assay type: cell-based, mouse; details: LPS-primed, 10 mM MG-132
Protocol: Raw264.7 or TLR4/MD2/CD14 293 cell lines were primed with 100 ng/ml^−1 LPS for 24 h and then treated with 1 mg/ml^−1 cycloheximide (Sigma-Aldrich; #C4859) for indicated time. Cells were harvested and subjected to immunoblot analysis by using anti-c-Myc antibody. Exposed films of immunoblot were scanned and quantified by ImageJ densitometry software. The intensity of each band was plotted in scatter plot and c-Myc half-life was determined on computed curve. Raw264.7 cells were primed with 100 ng/ml^−1 LPS for 24 h and then treated with 10 mM MG-132 for time indicated. C-Myc accumulation was reflected in immunoblot against c-Myc by short- and long-exposure. b-Actin and g-Tubulin were represented as loading controls.

G9a [2] = test: ChIP abundance of G9a within T-class promoters; assay type: cell-based, mouse; details: pre-treated TL cells
Protocol: (§1) ChIP experiments for studying histone modifiers and TFs were carried out in dual crosslinking way (Porro et al., 2007) with minor modifications. Cells were fixed using 2 mM DSG (disuccinimidyl glutarate, ProteomChem #c1104) for 45 min. Formaldehyde (1% v/v) was then added and incubated for 15 min. Crosslinking reactions were quenched by adding glycine to 0.1 M, followed by PBS washing. Cells were scraped and nuclei were pelleted by 0.5% NP-40 lysis buffer (50 mM pH 8.0 Tris-HCl, 85 mM KCl, 0.5% NP-40). The nuclear fraction was extracted with RIPA buffer (50 mM pH 8.0 Tris-HCl, 150 mM NaCl, 1 mM EDTA, 1% Triton-X-100, 0.1% SDS, 0.1% sodium deoxycholate) and sonicated to 200 to 1,000 bp DNA fragments, then incubated overnight with the antibody. The antibody complexes were linked to protein A/salmon sperm DNA beads (Cell Signaling, cat #9007) and washed thoroughly. The complexes were then eluted from the beads by 1% SDS, and incubated with NaCl to reverse the crosslinked products. Later, proteins were digested by protease-K and the released DNA was purified by QIAquick PCR purification Kit (Qiagen, cat #28104), and processed to quantitative PCR assay. ChIP experiments for studying histone post-PTMs were started from a one-step fixation of 1% (v/v) formaldehyde for 10 min, followed by the same steps as dual crosslinking ChIP described above.

H3K9me2 = test: ChIP analysis with anti-H3K9me2 antibody in BMDMs; assay type: cell-based, mouse; details: BMDMs treated prior to LPS stimulation; inhibitor pre-treated TL cells compared with NL
Protocol: as §1

HDAC1 = test: ChIP-PCR binding of HDAC1 to T-gene (IL6) promoter; assay type: cell-based, mouse; details: treated BMDMs during ET
Protocol: as §1

MTA1 = test: ChIP-PCR binding of MTA1 to T-class genes; assay type: cell-based, mouse; details: treated BMDMs
Protocol: as §1

H3K36me2 = test: immunoblot analysis of dimethylated H3K36; assay type: cell-based, mouse; details: treated vs non-treated BMDMs, TL
Protocol: (§2) Core histone proteins were prepared by Histone Purification Mini Kit (Active Motif; cat#40026). Adhered cells were washed with prewarmed serum-free media twice and were then harvested. The pellet was lysed with 1.5 ml extraction buffer per 2×10^7 cells and homogenized by repetitive pipetting. The cell lysate was processed under agitation for 2 h at 4° C. before the crude histone was clarified, neutralized and loaded onto the column. Histone proteins were purified by a C8 column and were precipitated by 4% perchloric acid according to the manufacturer's instructions and were resolved in HPLC water. All steps were processed on ice or in cold room, for the maximum preservation of histone modifications.

H3K27 = test: immunoblot analysis of methylated H3K27; assay type: cell-based, mouse; details: treated cells
Protocol: as §2

c-Myc [3] = test: ChIP-qPCR binding of c-Myc to gene loci; assay type: cell-based, mouse
Protocol: as §1

Raw264.7 cells = test: Clonogenic survival assay; assay type: cell-based, mouse; design: dose or concentration left out as unconfirmed
Protocol: Raw264.7 cells were counted and plated in six-well cell culture plates with 50, 100 and 200 viable cells in duplicated wells. Cells were primed with 100 ng/ml^−1 LPS for […] to reach the condition of ET and replenished with fresh media. […] After 9-day cell growth, cell colonies were washed with PBS, fixed with a mixture of methanol-acetic acid (3:1 in volume ratio) for 10 min, stained with 10% Giemsa (Ricca Chemical Company, Arlington, Tex., United States of America) for 30 min, gently washed with water and air dried. The colonies containing more than 20 cells were counted and the percentage of the survived cells under each condition was determined compared with the number of colonies on non-LPS or UNC0638-treated plates.

BMDM secretome = test: Label-free quantitative analysis of macrophage secretome; assay type: cell-based, mouse; details: BMDMs under TL pre-treated with 250 nM for 16 h
Protocol: Referring now to FIG. 1, cells were then either left unstimulated (N) or subjected to a single LPS challenge at 500 ng/ml^−1 for indicated hours (NL) or first primed with 100 ng/ml^−1 LPS to induce the ET for 24 h, followed by the second LPS challenge at 500 ng/ml^−1 for indicated hours (TL). Before the LPS challenge, cells were washed once and cultured in serum-free DMEM without phenolred, containing 1 mM sodium pyruvate and 10 mM L-glutamine. The secreted proteins were harvested and prepared (Meissner et al., 2013).
LFQ secretome analyses were performed via reversed phase LC-MS/MS using a Proxeon 1000 nano LC system coupled to an Q Exactive mass spectrometer (Thermo Scientific). […]
Label-free quantitation was based on the peak area (Cox et al., 2008; Gunawardena et al., 2013; Gunawardena et al., 2011; Porro et al., 2007). The measured area under the curve of m/z and retention time aligned extracted ion chromatogram (XIC) of a peptide was performed via the label-free quantitation module found in MaxQuant™ (vera 1.3.0.5) (Cox et al., 2008). All replicates (biological and technical replicates) of each experimental conditions: N, NL-16 h, TL-16 h, were included in the LFQ experimental design with protein-level quantitation and normalization performed using unique and razor peptide features corresponding to identifications filtered with a peptide FDR of 0.01 and protein FDR of 0.05. […]

G9a [4] = target: T1, G9a (Homo sapiens, UniProt Q96KQ7); details: Vedadi et al., 2011; cited from earlier work
T1 sequence (Q96KQ7 1-1210): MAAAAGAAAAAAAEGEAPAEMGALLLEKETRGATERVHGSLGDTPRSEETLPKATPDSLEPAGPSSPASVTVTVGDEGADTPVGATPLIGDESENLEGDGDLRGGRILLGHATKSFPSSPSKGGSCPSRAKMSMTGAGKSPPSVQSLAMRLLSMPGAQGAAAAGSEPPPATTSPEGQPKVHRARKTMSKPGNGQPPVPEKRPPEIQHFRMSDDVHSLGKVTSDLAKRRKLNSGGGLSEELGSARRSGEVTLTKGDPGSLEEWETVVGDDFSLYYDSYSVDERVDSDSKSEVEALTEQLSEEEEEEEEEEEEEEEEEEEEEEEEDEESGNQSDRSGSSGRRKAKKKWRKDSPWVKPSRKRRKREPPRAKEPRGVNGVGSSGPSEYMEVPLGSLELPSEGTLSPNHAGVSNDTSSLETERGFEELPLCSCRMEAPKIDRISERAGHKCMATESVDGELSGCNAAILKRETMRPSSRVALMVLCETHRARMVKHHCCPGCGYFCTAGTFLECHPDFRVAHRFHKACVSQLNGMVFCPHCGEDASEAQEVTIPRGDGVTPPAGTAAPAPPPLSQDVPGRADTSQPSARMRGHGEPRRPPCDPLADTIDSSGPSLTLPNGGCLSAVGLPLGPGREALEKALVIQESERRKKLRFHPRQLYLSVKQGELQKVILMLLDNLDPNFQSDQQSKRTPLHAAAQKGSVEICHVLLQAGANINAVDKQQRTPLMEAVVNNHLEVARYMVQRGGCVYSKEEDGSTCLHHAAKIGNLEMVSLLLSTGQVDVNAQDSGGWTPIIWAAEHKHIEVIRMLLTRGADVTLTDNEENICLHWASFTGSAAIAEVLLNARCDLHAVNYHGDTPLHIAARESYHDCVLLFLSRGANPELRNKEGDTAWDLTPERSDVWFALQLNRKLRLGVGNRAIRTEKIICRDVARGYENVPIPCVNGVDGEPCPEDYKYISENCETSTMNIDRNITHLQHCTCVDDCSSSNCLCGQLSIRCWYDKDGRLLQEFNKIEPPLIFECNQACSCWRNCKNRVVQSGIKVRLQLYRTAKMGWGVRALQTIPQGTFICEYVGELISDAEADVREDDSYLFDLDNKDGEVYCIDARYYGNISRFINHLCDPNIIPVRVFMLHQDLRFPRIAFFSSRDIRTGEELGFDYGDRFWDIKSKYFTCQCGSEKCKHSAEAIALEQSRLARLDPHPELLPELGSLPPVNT

CC(C)C[C@@H](C=O)NC(=O)[C@H](CC(C)C)NC(=O)[C@H](CC(C)C)NC(=O)OCc1ccccc1 [MG-132] (Cbz-Leu-Leu-Leu-aldehyde)
c-Myc level with post-treatment time (c-Myc [1]; G9a-KD Raw264.7 cells): progressive accumulation
c-Myc level with longer post-treatment time (c-Myc [1]; wild-type Raw264.7 cells (presence of G9a)): reduced

O=C(CCCCCCC(=O)Nc1ccccc1)NO [SAHA]
abundance of G9a within the T-class promoters (G9a [2]): reduced

COc1cc2c(NC3CCN(C(C)C)CC3)nc(C3CCCCC3)nc2cc1OCCCN1CCCC1 [UNC0638, 2-Cyclohexyl-N-(1-isopropylpiperidin-4-yl)-6-methoxy-7-(3-(pyrrolidin-1-yl)propoxy) quinazolin-4-amine]
change in H3K9me2 (ChIP) (H3K9me2): greater decreases
IL6-specific binding of HDAC1 (HDAC1): diminished
TL-specific binding of MTA1 to T-class genes (MTA1): diminished
level of H3K36me2 (H3K36me2): decreased
methylated level of H3K27 (H3K27): reduced
c-Myc binding to the NT-genes (c-Myc [3]): not affected
c-Myc binding to the loci of IL6 (c-Myc [3]; treated BMDMs under TL): diminished
c-Myc binding to IL6, IP-10 and p21 (c-Myc [3]; under TL): reduced
percentage of survived cells (Raw264.7 cells; cells under TL, 9-day growth): significantly reduced
percentage of survived cells (Raw264.7 cells; non-treated (non-LPS) wild-type cells): little effect
share of 992 identified proteins showing repressed releases whose secretion levels increased (BMDM secretome): 45%
change in abundance of G9a (G9a [4]): little change
